Assay results taken from ChEMBL document CHEMBL1201862, “PubChem BioAssay data set” (2004).
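All cell lines were grown in 96-well plates and treated with compound for 48 hours. Abbreviation: GI50, concentration required for 50% inhibition of growth.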 Calls of active or inactive are those of the source. Rule as the data show it: active = GI50 up to about 1.1 µM and inactive = higher.

Columns and labels:
Experiment in all cases: NCI tumour cell line growth inhibition, 48 h
SK-MEL-2 = test system: SK-MEL-2
Malme-3M = test system: Malme-3M
SF-295 = test system: SF-295
CCRF-CEM = test system: CCRF-CEM
SK-MEL-5 = test system: SK-MEL-5
K562 = test system: K562
TK-10 = test system: TK-10
SNB-75 = test system: SNB-75
LOX IMVI = test system: LOX IMVI
SF-539 = test system: SF-539
SR = test system: SR
MOLT-4 = test system: MOLT-4
NCI-H23 = test system: NCI-H23
HOP-62 = test system: HOP-62
UACC-62 = test system: UACC-62
CAKI-1 = test system: CAKI-1
HCC 2998 = test system: HCC 2998
SK-OV-3 = test system: SK-OV-3

Measured: GI50

O=C1NC2(C=Cc3c(ccc4ccccc34)O2)Oc2ccccc21 (configuration not stated)
inactive: SK-MEL-2 13.2 µM | Malme-3M 28.1 µM | SF-295 13 µM | CCRF-CEM 3.95 µM | SK-MEL-5 13.1 µM | K562 3.58 µM | TK-10 21.5 µM | SNB-75 15.1 µM | LOX IMVI 12.9 µM | SF-539 15.5 µM | SR 5.15 µM | MOLT-4 7.8 µM | NCI-H23 26.7 µM | HOP-62 31.7 µM | UACC-62 19.2 µM

O=C1CCC(=O)c2ccccc2N1
inactive: SK-MEL-2 > 100 µM | Malme-3M > 100 µM | SF-295 > 100 µM | CCRF-CEM > 100 µM | CAKI-1 > 100 µM | SK-MEL-5 > 100 µM | K562 > 100 µM | TK-10 > 100 µM | SNB-75 > 100 µM | HCC 2998 > 100 µM | LOX IMVI > 100 µM | SF-539 > 100 µM | MOLT-4 > 100 µM | NCI-H23 > 100 µM | HOP-62 > 100 µM | SK-OV-3 > 100 µM

CCc1ccccc1NC(=O)C(=O)C(C(=O)c1ccc(OC)cc1)c1ccc(OC)cc1 (configuration not stated)
inactive: SK-MEL-2 > 100 µM | Malme-3M > 100 µM | SF-295 > 100 µM | CCRF-CEM > 100 µM | CAKI-1 > 100 µM | SK-MEL-5 > 100 µM | K562 > 100 µM | TK-10 > 100 µM | HCC 2998 > 100 µM | LOX IMVI > 100 µM | SF-539 > 100 µM | MOLT-4 94.2 µM | NCI-H23 > 100 µM | HOP-62 > 100 µM | SK-OV-3 > 100 µM | UACC-62 > 100 µM

Nc1nc2c(ncn2C2OC(CO)C(O)C2O)c(=O)o1 (configuration not stated)
inactive: SK-MEL-2 > 100 µM | Malme-3M > 100 µM | SF-295 > 100 µM | CCRF-CEM > 23.2 µM | CAKI-1 > 100 µM | SK-MEL-5 > 100 µM | K562 > 21.9 µM | TK-10 > 100 µM | SNB-75 > 100 µM | HCC 2998 5.82 µM | LOX IMVI > 58.2 µM | SF-539 > 100 µM | NCI-H23 > 84.1 µM | HOP-62 > 100 µM | SK-OV-3 > 100 µM | UACC-62 > 100 µM

CN(OC(=O)CC(=O)c1ccccc1)C(=O)Cc1ccccc1
inactive: SK-MEL-2 > 100 µM | Malme-3M > 100 µM | SF-295 > 100 µM | CCRF-CEM > 100 µM | CAKI-1 > 100 µM | SK-MEL-5 > 100 µM | TK-10 > 100 µM | LOX IMVI > 100 µM | SF-539 > 100 µM | SR > 100 µM | NCI-H23 > 100 µM | HOP-62 > 100 µM | SK-OV-3 > 100 µM | UACC-62 > 100 µM

C=C(CO)CC(O)c1cc(OC)ccc1OC (configuration not stated)
inactive: SK-MEL-2 > 100 µM | Malme-3M > 100 µM | SF-295 > 100 µM | CCRF-CEM > 100 µM | CAKI-1 > 100 µM | SK-MEL-5 > 100 µM | K562 > 100 µM | TK-10 > 100 µM | SNB-75 > 100 µM | HCC 2998 > 100 µM | LOX IMVI > 100 µM | SF-539 > 100 µM | MOLT-4 > 100 µM | HOP-62 > 100 µM | SK-OV-3 > 100 µM | UACC-62 > 100 µM

Cc1nc(Nc2ccc(Cl)cc2)sc1C(=O)NNC(=S)NN
inactive: SK-MEL-2 18.5 µM | Malme-3M 19.7 µM | SF-295 17.5 µM | CCRF-CEM 29.1 µM | CAKI-1 24.7 µM | SK-MEL-5 18.3 µM | K562 27.3 µM | TK-10 20.9 µM | SNB-75 32.7 µM | HCC 2998 15.5 µM | LOX IMVI 14.5 µM | SF-539 17.5 µM | MOLT-4 21.5 µM | NCI-H23 17.6 µM | HOP-62 18.8 µM | SK-OV-3 27.4 µM | UACC-62 17.2 µM

O=C1CCC(=O)N1CNc1cccc(NCN2C(=O)CCC2=O)c1
inactive: SK-MEL-2 > 100 µM | Malme-3M > 100 µM | SF-295 > 100 µM | CCRF-CEM 29.6 µM | SK-MEL-5 > 100 µM | K562 45.6 µM | TK-10 > 100 µM | SNB-75 12.9 µM | HCC 2998 > 100 µM | SF-539 > 100 µM | MOLT-4 52.6 µM | NCI-H23 > 100 µM | HOP-62 > 100 µM | UACC-62 48.5 µM

C=C(C)CCOC(c1ccccc1)(c1ccccc1)c1ccccc1
inactive: Malme-3M 28.4 µM | SF-295 37.4 µM | CCRF-CEM 61.4 µM | CAKI-1 70.6 µM | SK-MEL-5 27.4 µM | K562 > 100 µM | TK-10 83.4 µM | SNB-75 68.7 µM | HCC 2998 25.6 µM | LOX IMVI 25.2 µM | SF-539 91 µM | MOLT-4 51.3 µM | NCI-H23 27.8 µM | HOP-62 70.5 µM | SK-OV-3 > 100 µM | UACC-62 40.1 µM

CN(C)c1ccc(/C=C2\Cc3ccccc3C2=O)cc1Br
inactive: SK-MEL-2 40.6 µM | Malme-3M 31.8 µM | SF-295 > 100 µM | CCRF-CEM 34.1 µM | CAKI-1 64.1 µM | SK-MEL-5 26.4 µM | K562 33 µM | TK-10 > 100 µM | SNB-75 38.5 µM | HCC 2998 > 100 µM | MOLT-4 28.5 µM | NCI-H23 39.2 µM | HOP-62 > 100 µM | SK-OV-3 > 100 µM | UACC-62 59.8 µM

COc1ccc2c(c1)[n+]([O-])c(C(=O)C/C(=N/NC(=O)C[N+](C)(C)C)C(=O)Nc1cccc(C)c1C)c(C)[n+]2[O-]
inactive: SK-MEL-2 > 100 µM | Malme-3M > 100 µM | SF-295 > 100 µM | CAKI-1 > 100 µM | K562 > 100 µM | SNB-75 > 100 µM | HCC 2998 > 100 µM | SF-539 > 100 µM | NCI-H23 > 100 µM | HOP-62 > 100 µM | SK-OV-3 > 100 µM | UACC-62 > 100 µM

C=CC[C@H]1C[C@@]2(C)OC[C@H](C(C)C)N2C1=O
inactive: SK-MEL-2 > 100 µM | Malme-3M > 100 µM | SF-295 > 100 µM | CCRF-CEM > 100 µM | CAKI-1 > 100 µM | SK-MEL-5 > 100 µM | K562 > 100 µM | TK-10 > 100 µM | SNB-75 > 100 µM | LOX IMVI > 100 µM | SF-539 > 100 µM | SR > 100 µM | NCI-H23 > 100 µM | HOP-62 > 100 µM | UACC-62 > 100 µM

Cn1c(=O)c2c(ncn2CCCCn2ccnc2[N+](=O)[O-])n(C)c1=O
inactive: SK-MEL-2 > 100 µM | Malme-3M > 100 µM | SF-295 > 100 µM | CCRF-CEM > 100 µM | SK-MEL-5 > 100 µM | K562 > 100 µM | TK-10 > 100 µM | SNB-75 38.3 µM | LOX IMVI > 100 µM | SF-539 > 100 µM | SR > 100 µM | MOLT-4 > 100 µM | NCI-H23 > 100 µM | HOP-62 > 100 µM | UACC-62 > 100 µM
